Assay results from article PMC5394417, “Investigating the molecular mechanism of positive and negative allosteric modulators in the calcium-sensing receptor dimer” (Scientific Reports, 2017).

Target: T1, HA-S147A CaSR mutant (Rattus norvegicus, UniProt P48442, S147A)
T1 construct: mGluR5 signal peptide (N); expressed in transfected cells; host or cells: HEK293T
T1 sequence (P48442 20-1079 S147A): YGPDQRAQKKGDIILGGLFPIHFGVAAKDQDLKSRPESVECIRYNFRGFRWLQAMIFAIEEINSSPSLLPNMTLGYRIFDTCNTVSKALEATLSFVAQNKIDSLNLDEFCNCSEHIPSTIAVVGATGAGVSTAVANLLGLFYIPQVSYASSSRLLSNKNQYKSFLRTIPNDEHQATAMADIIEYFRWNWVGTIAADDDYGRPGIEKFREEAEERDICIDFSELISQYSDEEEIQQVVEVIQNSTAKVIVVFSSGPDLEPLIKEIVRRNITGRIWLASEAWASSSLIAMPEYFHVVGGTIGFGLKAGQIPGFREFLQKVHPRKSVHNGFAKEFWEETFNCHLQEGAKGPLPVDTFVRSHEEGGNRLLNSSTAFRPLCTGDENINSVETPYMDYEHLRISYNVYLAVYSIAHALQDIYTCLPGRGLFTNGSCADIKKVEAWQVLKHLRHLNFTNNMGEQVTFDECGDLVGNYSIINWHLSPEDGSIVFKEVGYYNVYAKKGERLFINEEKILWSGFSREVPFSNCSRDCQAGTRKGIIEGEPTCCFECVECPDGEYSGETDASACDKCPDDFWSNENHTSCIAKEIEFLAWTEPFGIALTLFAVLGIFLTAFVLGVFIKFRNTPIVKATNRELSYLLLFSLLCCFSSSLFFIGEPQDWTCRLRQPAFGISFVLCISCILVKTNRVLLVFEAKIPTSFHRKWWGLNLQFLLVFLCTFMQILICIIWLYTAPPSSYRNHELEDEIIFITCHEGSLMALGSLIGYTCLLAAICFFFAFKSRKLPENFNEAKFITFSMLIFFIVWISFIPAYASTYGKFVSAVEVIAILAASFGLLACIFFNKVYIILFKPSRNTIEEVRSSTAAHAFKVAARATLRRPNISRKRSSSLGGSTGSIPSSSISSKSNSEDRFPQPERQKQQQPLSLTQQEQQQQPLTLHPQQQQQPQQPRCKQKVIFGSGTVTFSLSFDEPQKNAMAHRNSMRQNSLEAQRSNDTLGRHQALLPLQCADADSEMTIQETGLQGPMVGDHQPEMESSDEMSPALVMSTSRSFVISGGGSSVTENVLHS
Test: IP-One assay, HEK293T transiently transfected
Assay type: cell-based

EC50 (Ca^2+ alone): 9.07 mM
Hill coefficient ± S.E.M. (Ca^2+ alone): 3.50 ± 0.26
pEC50 ± S.E.M. (Ca^2+ alone): 2.04 ± 0.01
Max ± S.E.M. (normalized to maximum response of WT CaSR): 150 ± 17%
SMILES: [Ca+2] [Ca^2+]
